Type in all cases: cell-based
One experiment relates to IL-6. Description: IL-6 secretion by ELISA, LPS-treated primary human M1 macrophages, Example 5. The method, then: Primary human PMBC derived macrophages were seeded on day 0 at 3.0E4 cells per well in 96-well microplates (ThermoFisher) in Dulbecco's Modified Eagle Medium (DMEM) (Gibco) supplemented with penicillin-streptomycin (Hyclone) and 10% heat inactivated fetal bovine serum (HI-FBS) (Atlanta Bio) and incubated overnight at 37° C., 5% CO2. On day 1, cells were washed once with 150 uL per well DPBS (Gibco) and treated with 75 uL of: • a. Amino acid free DMEM (US Biologicals) containing a defined custom amino acid concentration based on the mean physiological concentrations in blood based on values published in the Human Metabolome Database (HMDB), with 6 mM glucose, 1 mM sodium pyruvate, 10 mM HEPES, 0.2% primocin (InVivoGen); or • b. The same media described above with supplemental amino acid and amino acid combination treatments at various concentrations. […]
On day 3, the supernatant was collected and immediately frozen in −80° C. freezer. Cells were washed once with 150 uL DPBS and viability was assessed using the WST-8 Cell Proliferation Cytotoxicity Assay (Dojindo). […] Protein levels in supernatant samples were analyzed by ELISA for IL-6 and TNFa using commercially available kits (R&D Systems) according to manufacturer-supplied protocols.
On the technique in general: In an ELISA, binding on a coated surface is turned into a signal by an enzyme label.

The test system of a further experiment is Human CCL2 (MCP-1). Description: MCP1 secretion by ELISA after 24 h, PHH model for NASH, Example 2. The note with it: FFA+TNFα. The method, then: PHH from two healthy human donors (Lonza, TRL) were seeded on day 0 at density of 6e04 cells in 96 well optical microplates (Thermofisher) in hepatocyte plating media (William's E medium, WEM) (Gibco) supplemented with 10% heat-inactivated FBS (Atlanta Bio), 2 mM Glutamax (Gibco), and 0.2% Primocin (InVivoGen) and incubated for 6 hours at 37° C., 5% CO2. After 6 hours, cells were washed twice and incubated overnight at 37° C., 5% CO2 with Hepatocytes defined medium (Corning) supplemented with 2 mM Glutamax (Gibco), and 1× Penicillin/Streptomycin. On day 1, cells were washed twice and incubated for 24 h in the hepatocyte culture media in the same conditions described above.
On day 2, cells were washed twice with DPBS 1× (Gibco) to remove excess amino acids and maintained in pretreatment media (1×HMDB, a defined custom amino acid concentration based on the mean physiological concentrations in blood, in WEM±supplemental amino acids): • a. Amino acid-free WEM (US Biologicals) supplemented with 11 mM Glucose (Sigma), 0.272 mM Sodium Pyruvate (Sigma), 1× P/S (Gibco) and containing 1×HMDB with no supplemental amino acids; or • b. The same media described above 1×HMDB WEM with supplemental amino acid and amino acid combination treatments at various concentrations. Cells were maintained in the defined media (a. & b.) for 24 hours at 37° C., 5% CO2. The HMDB values are published in the Human Metabolome Database (Wishart D S, Tzur D, Knox C, et al., HMDB: the Human Metabolome Database. Nucleic Acids Res. 2007 January; 35 (Database issue):D521-6. 17202168; which is hereby incorporated by reference in its entirety). Co-Treatment with Free Fatty Acids and Amino Acids Combination
After 24 h pre-treatment, cells maintained in the pretreatment media±supplemental amino acids (section (a. & b.) described above) were exposed to free fatty acids (FFA) at 250 uM with a ratio of 2:1 (Oleate:Palmitate) supplemented with TNF-α (Thermofisher) at 1 ng/ml. Cells were incubated with the FFAs mixture (FFAs+TNF-α)±supplemental amino acids treatments for 24 hours at 37° C., 5% CO2. After 24 hours incubation, media was removed for cytokine analysis and replaced by fresh media containing the same conditions described above (FFAs mixture±supplemental amino acids treatments). Cells were incubated for an additional 48 hours for a total of 72 hours of FFA and TNF-α stimulation. After 72 hours of incubation, media was removed for albumin and urea analysis and the cells were fixed for nuclei and lipid staining.
Human CCL2 (MCP-1) was measured by ELISA (Human […] DuoSet ELISA, R&D Systems) at 1/20 dilution in 1× Reagent Diluent (Reagent Ancillary Kit 2, R&D Systems). MCP1 data in primary human hepatocytes treated with FFA+TNFα+supplemental amino acids was normalized to 1×HMDB WEM+FFA+TNFα baseline. Data is reported as median fold change from control, statistical analysis was done using t-Test.

Experiment [1] has as its system primary human hepatocytes. Description: Intracellular triglyceride level after 72 h, colorimetric assay, Example 3. The method, then:
On day 2, cells were washed twice with DPBS 1× (Gibco) and maintained in: • a. Amino acid-free WEM (US Biologicals) supplemented with 11 mM Glucose (Sigma), 0.272 mM Sodium Pyruvate (Sigma), 1× P/S (Gibco) and containing a defined custom amino acid concentration based on the mean physiological concentrations in blood (1× HMDB WEM (−) supplemental amino acids); or • b. The same media described above 1×HMDB WEM (+) supplemental amino acids treatment dose at a 30× of HMDB amino acid concentration. Cells were maintained in the defined amino acids media (a. & b.) for 24 hours at 37° C., 5% CO2. Co-Treatment with Free Fatty Acids and Various Amino Acids Supplemental Treatments
After 24 h pre-treatment, cells maintained in the same media (a. & b.) described above 1×HMDB±supplemental amino acids were now exposed to free fatty acids (FFA) at 250 uM with a ratio of 2:1 (Oleate:Palmitate) supplemented with TNF-α (Thermofisher) at 1 ng/ml or vehicle. Cells with the FFAs+TNFα mixture±amino acids treatments were incubated for 72 hours at 37° C., 5% CO2 with a media change after the first 24 hours.
After 72 hours, cells were washed once with cold PBS 1× (Gibco), scrapped off and collected into 75 ul of standard diluent (Cayman). Collected cells were vortexed for 1 min at a 2500 rpm speed followed by two times sonication (Elmasonic sonicator) for 1 min each. Supernatants were collected for triglyceride analysis after centrifugation at 1000 rpm for 10 min at 4° C. Intracellular triglyceride level was assessed using triglyceride colorimetric assay kit (Cayman) and following manufacturer's recommendations. Data was normalized to the total amount of protein using Bicinchoninic Acid Protein Assay Kit (Sigma). Data is reported as median fold change from FFAs+TNFα condition, statistical analysis was done using t-Test.

The record followed here is patent publication US20190388377A1, “COMPOSITIONS AND METHODS FOR THE TREATMENT OF LIVER DISEASES AND DISORDERS” (AXCELLA HEALTH INC., priority 2018, published 2019).

As for `CC(=O)N[C@@H](CS)C(=O)O` [Nac, N-acetylcysteine], the “LPS-stimulated IL-6 secretion (in words)” value in the experiment with IL-6 was “decreased LPS-stimulated IL-6 and TNFa secretion”. In addition, the “MCP1 secretion (in words)” value in the experiment with Human CCL2 (MCP-1) (hepatocyte donor 1) and in the experiment on Human CCL2 (MCP-1) (hepatocyte donor 2) was “reduced MCP1 secretion” each time. Further, the “Triglyceride Level relative to the baseline FFA + TNF, Median” value in experiment [1] (FFA + TNF, 72 h, two donors, AA Conc 1X, Nac/Car 7.5 mM) is recorded as −1.172. In experiment [1] (FFAs+TNFα, two healthy donors), the “triglyceride level (in words)” value is recorded as “reduces triglyceride level but the effect was less pronounced than the combinations described previously”.
